# “And” between values parts separate entries of the source, which are not always exact repeats. Equal values may be shown once.
# Tests used:
# H1299 cells [1] = experiment: Cellular uptake by flow cytometry; type: cell-based, human
# [2] = tested on: H441 human lung cancer cells; experiment: MTT cell viability assay, H441; type: cell-based; details: 0-40 μM
# p-Akt at Thr308 = experiment: Immunoblot of Akt phosphorylation in H1299 cells; type: cell-based, human; details: H1299, 0-18 μM for 12 h, EGF 50 ng/mL 10 min
# p-MEK = experiment: Immunoblot of MEK phosphorylation in H1299 cells; type: cell-based, human; details: H1299, 0-18 μM for 12 h, EGF 50 ng/mL 10 min
# H1299 cells [3] = experiment: Live-cell confocal microscopy of internalization; type: cell-based, human; details: H1299, 5 μM FITC-labeled peptide, 2 h
# [4] = tested on: H1299 lung cancer cell line; experiment: MTT cell viability assay, H1299; type: cell-based, human; details: H1299 (Q61K N-Ras), 24 h
# K-Ras G12V [5] = biological target: T1, K-Ras G12V (Homo sapiens, UniProt P01116, G12V); experiment: Fluorescence anisotropy; type: binding
# K-Ras G12V [6] = biological target: T1, K-Ras G12V; experiment: FA-based competition assay with DCAI; type: binding
# K-Ras = details: read-out: KD, DCAI binding to K-Ras; cited from earlier work
Compound,"cell entry efficiency, fold lower than cFΦR4 (H1299 cells [1]; H1299, 5 μM FITC-labeled peptide, 2 h) [fold]",cell permeability (H1299 cells [1]; tested for cellular uptake),reduction in cell viability [2],reduction of EGF-induced p-Akt level (p-Akt at Thr308),reduction of EGF-induced p-MEK level (p-MEK),internalization / intracellular distribution (H1299 cells [3]),LD50 [4] [µM],"lower affinity than peptide 49 (K-Ras G12V [5]; K-Ras G12V, peptide lacking the DCAI moiety) [fold]","Kd (K-Ras G12V [5]; read-out: KDapp, FA, FITC-labeled peptide 100 nM, K-Ras G12V as purified from E. coli, mixture of GTP- and GDP-bound forms) [µM]",IC50 (K-Ras G12V [6]) [µM],Kd (K-Ras)
bicyclo [Tm-Ala-leu-Phe-Arg-asn-Pra-Ile-Asp-Lys-Phe-Nal-Arg-Arg-Arg-Arg-Dap]-Lys [peptide 54],~3,readily cell permeable,significant reduction in cell viability only at the highest inhibitor concentration tested,no effect,no effect,largely similar intracellular distribution,> 40,~80,17 ± 11,–,–
"Cc1[nH]c2cc(Cl)cc(Cl)c2c1CCN [DCAI, 4,6-dichloro-2-methyl-3-aminoethylindole]",–,–,–,–,–,–,–,–,–,840 ± 220,1100 µM and ~1100 µM
